Test systems include SK-OV-3 ovarian; NCI-H23 lung; T-47D breast; SK-MEL-2 melanoma; OVCAR-5 ovarian; EKVX NSCLC; M14 melanoma; RXF 393 renal; SK-MEL-5 melanoma; HCC-2998 colon.
What all share (experiment): NCI tumour cell line growth inhibition, 48 h

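How tested: cells in 96-well plates exposed to compound for 48 hours at five concentrations. GI50: concentration for 50% inhibition of growth. TGI: concentration producing complete growth inhibition.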

Turning to `Cn1cc(-c2csc(-c3ccccc3)n2)c2cccnc21`, the GI50 in the assay with SK-OV-3 ovarian was 18.7 µM; in the assay on NCI-H23 lung, 16.2 µM; in the assay with T-47D breast, 6.04 µM; in the assay on SK-MEL-2 melanoma, 18.5 µM; in the assay on OVCAR-5 ovarian, 14 µM; with EKVX NSCLC, 5.2 µM. The GI50 in the assay on M14 melanoma was 13.9 µM; in the assay with RXF 393 renal it was 14.6 µM; in the assay with SK-MEL-5 melanoma it was 13.7 µM; in the assay with HCC-2998 colon, 16.7 µM. In addition, the TGI in the assay with SK-OV-3 ovarian amounted to 43.3 µM; in the assay on NCI-H23 lung it was 38 µM; with T-47D breast it was 28.5 µM; in the assay with SK-MEL-2 melanoma, 42.3 µM; with OVCAR-5 ovarian, 32.7 µM; in the assay with EKVX NSCLC, 35.2 µM. For the same compound, the TGI came out at 27.8 µM with M14 melanoma, 33.2 µM in the assay on RXF 393 renal, 26.6 µM in the assay with SK-MEL-5 melanoma and 31.1 µM with HCC-2998 colon.

Take `Nc1nc2ccc(CNc3ccc(C(=O)NC(CC(=O)O)C(=O)O)cc3)cc2c(=O)[nH]1` (configuration not stated): the GI50 is > 29.1 µM with SK-OV-3 ovarian; 5.83 µM with NCI-H23 lung; > 100 µM in the assay on T-47D breast; > 100 µM in the assay on SK-MEL-2 melanoma; > 47.2 µM in the assay on OVCAR-5 ovarian; > 34.7 µM in the assay on RXF 393 renal. Also, the GI50 was 5.35 µM in the assay on SK-MEL-5 melanoma and 7.39 µM in the assay on HCC-2998 colon. Further, the TGI in the assay with SK-OV-3 ovarian, with NCI-H23 lung, with T-47D breast, in the assay on SK-MEL-2 melanoma, in the assay on OVCAR-5 ovarian and in the assay on EKVX NSCLC was > 100 µM in each case. Also, the TGI with M14 melanoma, with RXF 393 renal, in the assay with SK-MEL-5 melanoma and with HCC-2998 colon was > 100 µM in each case.

Consider `COc1cccc2nc(Nc3cccc(NC(=O)c4ccc(N5CCN(C)CC5)c(C(F)(F)F)c4)c3)ccc12`, for which the GI50 in the assay with SK-OV-3 ovarian is 1.73 µM; with NCI-H23 lung it was 2.93 µM; in the assay on T-47D breast, 1 µM; in the assay with SK-MEL-2 melanoma, 1.36 µM; in the assay on OVCAR-5 ovarian it was 1.53 µM; with EKVX NSCLC it was 1.83 µM. The GI50 in the assay with M14 melanoma is 0.899 µM; with RXF 393 renal, 0.802 µM; in the assay with SK-MEL-5 melanoma, 1.52 µM; in the assay with HCC-2998 colon it was 0.95 µM. The TGI with SK-OV-3 ovarian is 6.11 µM; in the assay with NCI-H23 lung, 10.6 µM; in the assay with T-47D breast, 3.37 µM; in the assay with SK-MEL-2 melanoma it was 3.65 µM; with OVCAR-5 ovarian, 4.99 µM; in the assay with EKVX NSCLC it was 6.92 µM. For the same compound, the TGI with M14 melanoma was determined as 1.95 µM; in the assay on RXF 393 renal, 2.96 µM; with SK-MEL-5 melanoma it was 5.03 µM; in the assay on HCC-2998 colon, 1.78 µM.

On to `O=C1CCc2cc(Br)ccc2O1`, for which the TGI with NCI-H23 lung, in the assay on T-47D breast, in the assay with SK-MEL-2 melanoma, with OVCAR-5 ovarian, in the assay with EKVX NSCLC and in the assay on M14 melanoma was > 100 µM in each case. For the same compound, the TGI in the assay with RXF 393 renal is 91.2 µM; with SK-MEL-5 melanoma, > 100 µM; in the assay on HCC-2998 colon it was > 100 µM.

As to `CCOC(=O)C1=C(C)NC2SC(=O)/C(=C\c3cccc(Cl)c3)N2C1c1ccccc1` (configuration not stated), the GI50 with SK-OV-3 ovarian, with NCI-H23 lung, in the assay on T-47D breast, in the assay on SK-MEL-2 melanoma, in the assay on OVCAR-5 ovarian and in the assay on EKVX NSCLC was > 100 µM in each case. Moreover, the GI50 was > 100 µM in the assay on M14 melanoma, > 100 µM in the assay with RXF 393 renal, 58.7 µM with SK-MEL-5 melanoma and > 100 µM in the assay with HCC-2998 colon. Besides, the TGI in the assay on SK-OV-3 ovarian, in the assay with NCI-H23 lung, with T-47D breast, with SK-MEL-2 melanoma, in the assay on OVCAR-5 ovarian and with EKVX NSCLC was > 100 µM each time. Further, the TGI in the assay with M14 melanoma, in the assay with RXF 393 renal, in the assay with SK-MEL-5 melanoma and in the assay on HCC-2998 colon was > 100 µM in each case.

Regarding `CCCCCCCCCCCCCCCC(=O)NS(=O)(=O)OC[C@H]1O[C@@H](n2cnc3c(N)ncnc32)[C@H](O)[C@@H]1O`, the GI50 was 0.278 µM with SK-OV-3 ovarian; 0.321 µM in the assay on NCI-H23 lung; 0.275 µM in the assay with T-47D breast; 0.588 µM with SK-MEL-2 melanoma; < 0.0158 µM in the assay with OVCAR-5 ovarian; 0.271 µM in the assay on EKVX NSCLC. Moreover, the GI50 in the assay on M14 melanoma was 0.632 µM; with RXF 393 renal, < 0.0161 µM; in the assay on SK-MEL-5 melanoma, 0.234 µM; with HCC-2998 colon, < 0.0192 µM. In addition, the TGI is 1.15 µM with SK-OV-3 ovarian; 1.25 µM in the assay on NCI-H23 lung; 1.34 µM in the assay on T-47D breast; 2.83 µM in the assay on SK-MEL-2 melanoma; < 0.0339 µM in the assay with OVCAR-5 ovarian; 1.74 µM in the assay on EKVX NSCLC. Besides, the TGI with M14 melanoma is 2.17 µM; in the assay on RXF 393 renal, < 0.0284 µM; in the assay with SK-MEL-5 melanoma, 0.571 µM; in the assay on HCC-2998 colon it was < 0.038 µM.

Regarding `O=C1NC(c2ccc3ccccc3c2)Nc2ccccc21` (configuration not stated), the TGI in the assay with SK-OV-3 ovarian, in the assay with NCI-H23 lung, in the assay on T-47D breast, with SK-MEL-2 melanoma, with EKVX NSCLC and with M14 melanoma was > 100 µM each time. Also, the TGI in the assay with RXF 393 renal, in the assay on SK-MEL-5 melanoma and in the assay on HCC-2998 colon was > 100 µM in each case.

In the case of `CCCCCCCCCN=C(N)c1ccc(N2CCN(c3ccc(C(N)=NCCCCCCCCC)cc3)CC2)cc1`, the GI50 was 2.65 µM with SK-OV-3 ovarian; 1.67 µM in the assay on NCI-H23 lung; 2.44 µM with T-47D breast; 2.88 µM in the assay with SK-MEL-2 melanoma; 3.13 µM with OVCAR-5 ovarian; 1.95 µM with EKVX NSCLC. The GI50 is 3.09 µM in the assay with M14 melanoma, 1.04 µM in the assay with RXF 393 renal and 1.82 µM with HCC-2998 colon. The TGI in the assay on SK-OV-3 ovarian was 33.1 µM; in the assay on NCI-H23 lung it was 6.37 µM; in the assay on T-47D breast, 11.8 µM; with SK-MEL-2 melanoma it was > 50 µM; in the assay with OVCAR-5 ovarian, 11 µM; in the assay with EKVX NSCLC, 7.72 µM. The TGI is > 50 µM in the assay on M14 melanoma, 3.01 µM in the assay on RXF 393 renal and 6.14 µM in the assay with HCC-2998 colon.

In the case of `C[n+]1cccc(NC(=O)c2ccc3ccc4ccc(C(=O)Nc5ccc[n+](C)c5)nc4c3n2)c1`, the GI50 in the assay on SK-OV-3 ovarian is 1.97 µM; with NCI-H23 lung it was 1.41 µM; in the assay on T-47D breast it was 0.52 µM; in the assay on SK-MEL-2 melanoma it was 6.71 µM; in the assay with OVCAR-5 ovarian it was 47.8 µM; in the assay with EKVX NSCLC, 5.08 µM. The GI50 in the assay with M14 melanoma was 3.67 µM; in the assay with RXF 393 renal it was 1.98 µM; with HCC-2998 colon, 3.04 µM. Also, the TGI is 12.5 µM in the assay with SK-OV-3 ovarian; > 45 µM in the assay on NCI-H23 lung; > 100 µM in the assay with T-47D breast; > 100 µM with SK-MEL-2 melanoma; > 100 µM in the assay on OVCAR-5 ovarian; > 100 µM in the assay with EKVX NSCLC. For the same compound, the TGI with M14 melanoma is > 100 µM; with RXF 393 renal, 4.75 µM; in the assay on HCC-2998 colon, > 100 µM.

The record behind these values is PubChem BioAssay (NCI).
